# How the values were obtained:
# [1] = system: HT22 cells; details: 25 iM roscovitine, 1 μM U0126, 24 hours
# Experimental: Examined was a cell death level of neuronal cells containing a lot of aggregated and hyperphosphorylated tau due to ALK. HT22 cells were cotransfected with pALK.Fc or pALK.Fc KD construct and pGFP or pGFP-tau construct, and cultured for 24 to 96 hours. Cell death was measured by staining cells with ethidium homodimer (EtHD) and then counting GFP-positive cells indicating condensed and fragmented nuclei.
# To examine downstream kinase of ALK-mediated tau neurotoxicity, the present inventor used a kinase inhibitor. HT22 cells were cotransfected with pALK.Fc and pGFP-tau constructs, and then treated with mock (Mock), 25 iM roscovitine (Ros), 1 μM U0126 (U0126), or 10 mM LiCl for 24 hours. Thereafter, cell death was measured. For negative control, used was mock group in which none of a material was treated.
# [2] = system: ALK-mediated tau phosphorylation; details: for ALK-mediated tau phosphorylation: HT22 cells, pGFP-tau + pALK.Fc, 24 hours, dependent on treating amount
# [3] = biological target: T1, CDK5 (Mus musculus, UniProt P49615); test: ALK/Tau cell death in HT22 cells with CDK5 shRNA (LIVE/DEAD Viability/Cytotoxicity kit); assay type: cell-based; details: pGFP-tau + pALK.Fc + shRNA, 48 hours after transfection
# T1 construct: endogenous in cells; host or cells: HT22 cells cotransfected with pGFP-tau, pALK.Fc and pCDK5 shRNA #1 or #2
# Experimental: Moreover, the present inventor observed neurotoxicity of ALK/Tau by using CDK5 shRNA. HT22 cells cotransfected with pGFP-tau and pALK.Fc constructs together with either pCDK5 shRNA #1 or #2. After 48 hours of the transfection, cell death was measured by using LIVE/DEAD Viability/Cytotoxicity kit (Molecular Probes). As the same as above experimental results, it was observed that cell death induced by ALK/Tau was reduced when endogenous CDK5 expression was inhibited using shRNA (FIG. 8D). The used pCDK5 shRNA #1 was characterized by having a polynucleotide having the nucleotide sequence of SEQ ID No. 1 (5′-[…]-3′), and pCDK5 shRNA #2 was characterized by having a polynucleotide having the nucleotide sequence of SEQ ID No. 2 (5′-[…]-3′). […] The results shown in FIGS. 8A to 8D were mean±S.D obtained by triplicate experiments.
# [4] = system: HT22/Tau #1 transformed cell line; test: Neurite growth and cell viability in HT22/Tau #1 cells by fluorescence microscopy; assay type: cell-based, mouse; details: 25 μM pretreatment, 24 hours, neuronal cells expressing tau and ALK.Fc
# Experimental: A HT22/Tau #1 transformed cell line was cotransfected with pGFP and pcDNA or pALK after pretreated with 25 μM of roscovitine. Thereafter, the resultant was cultured for 24 hours with/without doxycycline (Dox) treatment. Neurite growth and cell viability were measured through a fluorescence microscopy. Relative ratio of neurites was measured by the number of neuronal cells verses the length of neurites. Consequently, the reduction in neurite growth and the increase in cell death by ALK and tau in neuronal cells expressing tau and ALK.Fc were recovered through the CDK5 inhibitor, roscovitine, treatment (FIG. 9B).
# [5] = system: tau aggregation caused by ALK in HT22 cells; test: Tau aggregation in HT22 cells cotransfected with pmALK and pGFP-tau, counted by fluorescence microscopy; assay type: cell-based, mouse; details: pmALK + pGFP-tau, emodin treatment
# Experimental: To examine whether mouse ALK increases aggregation and phosphorylation of tau, a pGFP-tau-based functional screening method of which availability was validated in the Experiment Example 1 was used. […] The transfection was performed while amounts of cotransfected pcDNA, pGSK3β CA, and pmALK constructs were increased to 100, 200, and 400 ng. After 24 hours of transfection, aggregation of tau was examined as the number of GFP-positive cells appeared to be aggregated by using a fluorescence microscopy. After then, the cells were extracted to examine phosphorylation of tau by analyzing PHF-1 protein expression with western blot. Subsequently, the present inventor examined aggregation and phosphorylation of tau caused by coexpression of mouse tau and mouse ALK as observed in Experimental Example 1-1 through treatment of an inhibitor of ERK activation and PHF aggregation. Specifically, HT22 cells were cotransfected with pmALK and pGFP-tau constructs, and condensation of cells depending whether emodin was treated or not was counted, wherein emodin is an inhibitor of ERK activation and PHF aggregation. Then, the cells were extracted to examine a phosphorylation level of tau protein by using PHF-1 antibody and Tau-1 antibody.
# [6] = system: tau protein phosphorylation; test: Western blot of tau phosphorylation (PHF-1, Tau-1 antibodies) in HT22 cells cotransfected with pmALK and pGFP-tau; assay type: cell-based, mouse; details: pmALK + pGFP-tau, emodin treatment
# Experimental: Subsequently, the present inventor examined aggregation and phosphorylation of tau caused by coexpression of mouse tau and mouse ALK as observed in Experimental Example 1-1 through treatment of an inhibitor of ERK activation and PHF aggregation. Specifically, HT22 cells were cotransfected with pmALK and pGFP-tau constructs, and condensation of cells depending whether emodin was treated or not was counted, wherein emodin is an inhibitor of ERK activation and PHF aggregation. Then, the cells were extracted to examine a phosphorylation level of tau protein by using PHF-1 antibody and Tau-1 antibody.
# [7] = system: tau aggregation caused by ALK in HT22 cells; details: emodin, inhibitor of PHF aggregation; given with literature references; cited from earlier work
# [8] = system: tau phosphorylation and signaling proteins in brain; test: Western blot of brain tissue (hippocampus) of TauC3 mice after the behavior tests; assay type: in vivo, mouse
# [9] = system: TauC3 AD model mice; test: Memory tests (Y-MAZE, novel object recognition, passive avoidance) in TauC3 AD model mice; assay type: in vivo, mouse; details: TauC3 mice one-month-old, icv injection 9 pg, after 17 days
# Experimental: TauC3 mice, which were produced by the present inventor, are a tau Alzheimer's mouse model showing early memory defect by expressing tauC3 in a mouse brain, wherein the tauC3 has C-terminal of which 20 amino acids were eliminated by caspase-3 (see Korean Patent No. 1213325). […] After 17 days, memory was measured and compared by Y-MAZE (FIGS. 14A and 14B), novel object recognition (FIG. 14C) and passive avoidance test (FIG. 14D). Consequently, as shown in FIGS. 14A to 14D, memory of mock (a control) in TauC3 TG mice was remarkably declined while memory decline of the ALK inhibitor treating group was suppressed in all three types of behavior tests.
# [10] = system: HT22/Tau #1 cells; test: Cell death of HT22/Tau #1 cells transfected with ALK.Fc and treated with ALK inhibitor (fluorescence microscopy, cell morphology); assay type: cell-based, mouse; details: 20 nM, 24 hours; decreased from 42% without inhibitor
# Experimental: Then, cell death was determined through a fluorescence microscopy based on cell morphology. Thereafter, cells were extracted and phosphorylation of tau, ERK, CDK5 and ALK was measured through western blot using respective antibodies. The error bar of the graph indicates mean±S.D. (n=4).
# T1 sequence (P49615 whole entry): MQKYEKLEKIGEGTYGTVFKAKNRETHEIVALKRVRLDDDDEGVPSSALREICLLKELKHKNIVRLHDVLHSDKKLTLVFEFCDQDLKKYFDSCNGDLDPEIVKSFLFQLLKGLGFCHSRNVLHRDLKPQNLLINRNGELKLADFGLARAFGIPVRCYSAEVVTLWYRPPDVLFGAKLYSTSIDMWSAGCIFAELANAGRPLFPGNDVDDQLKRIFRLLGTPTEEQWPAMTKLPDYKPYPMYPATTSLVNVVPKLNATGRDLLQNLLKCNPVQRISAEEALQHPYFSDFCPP
molecule,measurement,setting,value
N#CC(=C(/N)Sc1ccccc1N)/C(C#N)=C(\N)Sc1ccccc1N [U0126],ALK.Fc/Tau-mediated neurotoxicity (cell death),[1],partially reduced
same,ALK-mediated tau phosphorylation,[2],significantly reduced
pCDK5 shRNA #1: CDK5 shRNA having the nucleotide sequence of SEQ ID No. 1 (5′-TGACCAAGCTGCCAGACTA-3′),cell death induced by ALK/Tau,[3],reduced
[Cl-].[Li+] [LiCl],tau phosphorylation,"[2]; both cells expressing pGFP-tau alone and coexpressing pGFP-tau and pALK.Fc, inhibition levels very similar",inhibited
CC[C@H](CO)Nc1nc(NCc2ccccc2)c2ncn(C(C)C)c2n1 [roscovitine],increase in cell death by ALK and tau,[4],recovered
same,reduction in neurite growth by ALK and tau,[4],recovered
same,ALK.Fc/Tau-mediated neurotoxicity (cell death),[1],significantly reduced
same,ALK-mediated tau phosphorylation,[2],significantly reduced
Cc1cc(O)c2c(c1)C(=O)c1cc(O)cc(O)c1C2=O [emodin],tau aggregation caused by ALK,[5],inhibited
same,PHF-1 expression (phosphorylated tau),[6],decreasing
same,tau-1 expression (unphosphorylated tau),[6],increased
same,IC50,[7],1000 to 5000 nM
C[C@@H](Oc1cc(-c2cnn(C3CCNCC3)c2)cnc1N)c1c(Cl)ccc(F)c1Cl [PF-2341066],ERK1/2 activity in brain,[8]; TauC3 mouse brain,reduced
same,"phosphorylation of tau in brain (PHF1, pT231, CP13, 12E8)",[8]; TauC3 mouse brain (hippocampus),significantly inhibited
same,memory decline in all three types of behavior tests,[9],suppressed
COc1cc(N2CCC(N3CCN(C)CC3)CC2)ccc1Nc1ncc(Cl)c(Nc2ccccc2S(=O)(=O)C(C)C)n1 [NVP-TAE684],cell death,[10],10%
pCDK5 shRNA #2: CDK5 shRNA having the nucleotide sequence of SEQ ID No. 2 (5′-ACTCCACGTCCATCGACAT-3′),cell death induced by ALK/Tau,[3],reduced

# — patent US20180092920A1, “METHOD FOR TREATING TAU PROTEIN-MEDIATED DEGENERATIVE NEURONAL DISEASE” (SEOUL NATIONAL UNIVERSITY R&DB FOUNDATION, priority 2012, published 2018)
